The source of these data is DBAASP.

Converted amounts (≈) assume the structure as drawn.

Common to all, as to assay: ≥ marks a high value that may be exact or a test limit, other limits are often not marked, values filed in µg/mL are converted to µM
The subject of one test is Candida albicans.
The test system of test [1] is Escherichia coli NIHJ JC-2.
Test [2] relates to Bacillus subtilis ATCC 6633.
The subject of test [3] is Staphylococcus aureus FDA 209P JC-1.

`CC(C)C[C@H](NC(=O)CN)C(=O)N[C@@H](CC(C)C)C(=O)N[C@@H](CC(=O)O)C(=O)N[C@@H](CO)C(=O)N[C@@H](CC(C)C)C(=O)N[C@@H](CCCCN)C(=O)NCC(=O)N[C@@H](Cc1ccccc1)C(=O)N[C@@H](C)C(=O)N[C@@H](C)C(=O)N[C@H](C(=O)N[C@@H](C)C(=O)NCC(=O)N[C@@H](CCCCN)C(=O)NCC(=O)N[C@H](C(=O)N[C@@H](CC(C)C)C(=O)N[C@@H](CCC(N)=O)C(=O)N[C@@H](CO)C(=O)N[C@@H](CC(C)C)C(=O)N[C@@H](CC(C)C)C(=O)N[C@@H](CO)C(=O)N[C@H](C(=O)N[C@@H](C)C(=O)N[C@@H](CO)C(=O)N[C@H]1CSSC[C@@H](C(=O)O)NC(=O)[C@H]([C@@H](C)O)NC(=O)[C@H](CCCCN)NC(=O)[C@H](C)NC(=O)[C@H](CC(C)C)NC(=O)[C@H](CCCCN)NC1=O)[C@@H](C)O)C(C)C)[C@@H](C)O` [GLLDSLKGFAATAGKGVLQSLLSTASCKLAKTC]: the minimal inhibitory concentration (MIC) against Candida albicans is greater than 40 µM; in test [1] it was 1.23 µM (≈ 4 µg/mL); in test [2], 0.615 µM (≈ 2 µg/mL); in test [3], 2.46 µM (≈ 8 µg/mL).

The term MIC denotes the smallest concentration in the dilution series that meets the test's criterion for growth inhibition.
